Article PMC9219824, “Antiplasmodial Cyclodecapeptides from Tyrothricin Share a Target with Chloroquine” (Antibiotics, 2022)
Like-named read-outs stand apart in the source and are kept apart here. Square brackets hold non-standard residues; d marks the D form. Peptide text beside a SMILES is read from it. Orn = NCCC[C@H](N)C(=O)O

What was measured:
[1] = Toxicity to COS-1 cells, CellTiter Blue viability; type: cell-based; settings: African green monkey, resazurin (CellTiter Blue), read-out: Toxicity LC50, COS Cells
Procedure: COS-1 cells were cultured in DMEM containing 0.9 g/L glucose, 0.12% NaHCO3, 10% fetal calf serum and 1% penicillin–streptomycin at 37 °C and under an atmosphere of 5% CO2 [95]. Twenty hours before the assay, the cells were transferred to 96-well plates at a density of 1.5 × 10^4 cells/well. The peptides from the dilution series were added to each well and incubated for 24 h. The cell viability was measured by adding 20 μL/well resazurin reagent (CellTiter Blue™), followed by four hours incubation at room temperature in the dark and measurement of the absorbance at 560 nm and 600 nm in the BioRad microplate reader.
The data obtained from spectrophotometric measurement of the plates following the lactate dehydrogenase (Malstat) assay were converted to percentage growth inhibition using the data analysis method described by Rautenbach et al.. The background was obtained from control wells in which the parasites were killed with 100 µM GS while total growth was from the wells that were not submitted to peptides. The background for the hemolysis evaluation was from wells in which the uninfected erythrocytes were lysed using 100 µM GS while growth control was from the wells with uninfected erythrocytes that received no peptides. The percentage COS-1 cell death (CellTiter Blue™ assay) was similarly calculated from absorbance values. All the dose–response assay data were evaluated using GraphPad Prism 4.03 (GraphPad Software, San Diego, CA, USA) followed by non-linear regression and sigmoidal curves were fitted (having variable slope and a constant difference of 100 between the top and bottom plateau). Following calculation of the 50% P. falciparum inhibitory concentration (IC50), 50% hemolytic concentration (HC50) and 50% lethal concentration (LC50) for COS-1 cells.

CQR P. falciparum Dd2 = assay: microbe, parasite or virus in culture; type: cell-based, Plasmodium falciparum; settings: for IC50: 48 h, Malstat, ± SEM, read-out: IC50, CQR P. falciparum Dd2; for Resistance Index IC50Dd2/IC503D7: first value of cell; for Resistance Index IC50Dd2/IC50D10: second value of cell
Procedure: (§1) The antimalarial assays were carried out according to the method of Nkhoma et al.. […] On the day of the assay, the parasitemia was determined following observation by light microscopy after Giemsa staining of a thin blood smear from the culture. The cultures at young trophozoite stage were diluted to 2% parasitemia and 2% hematocrit by addition of fresh RPMI medium and uninfected erythrocytes. This culture suspension was distributed in 96-well culture plates at 90 µL/well. […] Peptide solvent and medium (10 µL/well) was used as sterility control and in growth control and 10 μL 1.0 mM GS was used as positive control. Assays were carried out in at least three biological repeats each consisting of three technical repeats to ascertain reproducibility.
(§2) The culture suspension was frozen away at −20 °C until determination of the residual lactate dehydrogenase activity of the parasites by the Malstat assay, as adapted from Gomez et al..
(§3) For the Malstat assay, the plates were transferred to −80 °C for 1 h following overnight storage at −20 °C to ensure that all the suspensions in each well of the 96-well plate were frozen. The plates were then thawed at room temperature. The Malstat reagent consisted of 200 μL Triton X-100, 2 g L-lactic acid (substrate), 0.66 g Tris-HCl buffer and 0.011 g of 3-acetylpyridine adenine dinucleotide (APAD) (coenzyme for parasite lactate dehydrogenase) in 100 mL analytical quality water set to a pH of 9.0 [93]. […] A 15 µL aliquot of the thawed and properly mixed suspension from the assay plates was added to 100 µL of the Malstat reagent, followed by addition of 25 µL of the NBT/PES solution. The reaction mixtures were then incubated at room temperature in the dark for 30 min followed by spectrophotometric measurement of the absorbance of the reduced APAD at 620 nm using a Model 680 Microplate reader from BioRad.
(§4) The data obtained from spectrophotometric measurement of the plates following the lactate dehydrogenase (Malstat) assay were converted to percentage growth inhibition using the data analysis method described by Rautenbach et al.. The background was obtained from control wells in which the parasites were killed with 100 µM GS while total growth was from the wells that were not submitted to peptides. […] The percentage COS-1 cell death (CellTiter Blue™ assay) was similarly calculated from absorbance values.

CQS P. falciparum 3D7 = assay: microbe, parasite or virus in culture; type: cell-based, Plasmodium falciparum
Procedure: as §1, §2, §3, §4

CQI P. falciparum D10 = settings: for nature of CQ-peptide interaction: at the lowest CQ ratio, D10
Procedure: In order to determine the nature of Trc-CQ interaction, IC50 values were derived from dose–response curves of fixed ratios of Trc and CQ for fractional inhibition concentration (FIC) determination according to an adaptation of the methods by Chawira and Warhust and Fivelman et al..
CQ at […] (2.0 µM) and 500.0 μM peptide were used to prepare doubling and quadrupling dilution ranges, respectively in supplemented RPMI-1640 culture medium used for culturing the P. falciparum, but lacking albumax II. These were then mixed in an chequerboard fashion to determine the 1:0; 0:1 1;1, 1:2; 1:5 and 1:10 ratios of CQ:peptide for combined IC50s. The CQ, peptide or drug:peptide combination (10 μL) was added to 90 μL of the cell suspensions, incubated for 48 h at 37 °C under an atmosphere of 3% CO2, 4% O2 and 93% N2 and analyzed for growth inhibition as previously described using the Malstat assay. The IC50 values and standard error of the mean for the various CQ-peptide combinations were determined from the dose–response curves plotted and analyzed using GraphPad Prism® 4.03 (GraphPad Software, San Diego, CA, USA). A minimum of three technical repeats and three biological repeats were carried out for each combination experiment.
Two fractional inhibition concentration (FIC) values were calculated for each of the five CQ-peptide combination ratios, one for CQ and the other for the peptide according to Equations (1) and (2) below from Bell:FICCQ = IC50([CQ] in combination)/IC50CQ ([CQ] alone)(1) FICPeptide = IC50 ([Peptide] in combination)/IC50Peptide ([Peptide] alone)(2)
The FIC values were used to compute the FIC index which is the sum of FICs of CQ and each peptide using Equation (3) below:FIC index = FICCQ + FICpeptide(3)
The magnitude of the FICI determined the nature of the CQ-peptide interaction as being either synergistic (FICI < 1.0), antagonistic (FICI > 1.0) or additive (FICI = 1.0) 64–66. […] The shape of the isobolograms also provided an indication of the nature of the interactive effect of CQ and the peptides with a concave curve for synergy, a linear line for an additive to non-interactive effect or convex curve for antagonism with deviation of the curves from the additivity line indicating the strength of the interactive effect.

[2] = 48 h, Malstat, ± SEM, read-out: IC50, CQS P. falciparum 3D7
[3] = CQ:peptide ratio 1:1 at IC50, D10
[4] = CQ:peptide ratio 1:2 at IC50, D10
[5] = CQ:peptide ratio 1:10 at IC50, D10
[6] = CQ:peptide ratio 1:5 at IC50, D10

## CC(C)C[C@@H]1NC(=O)[C@H](CCCN)NC(=O)[C@H](C(C)C)NC(=O)[C@H](Cc2ccc(O)cc2)NC(=O)[C@H](CCC(N)=O)NC(=O)[C@H](CC(N)=O)NC(=O)[C@@H](Cc2ccccc2)NC(=O)[C@H](Cc2ccccc2)NC(=O)[C@@H]2CCCN2C(=O)[C@@H](Cc2ccccc2)NC1=O [TrcA, tyrocidine A] (cyclo(V[Orn]L[dF]PF[dF]NQY))
[1]
  CC50 at 24 h: 6000 nM
CQR P. falciparum Dd2
  IC50: 1800 ± 319 nM
CQS P. falciparum 3D7; [2]
  IC50: 41 ± 12 nM
CQI P. falciparum D10; [3]
  CQ FIC: 1.77 ± 0.29
  CQ:Peptide FIC Index: > 3
  Peptide FIC: 1.99 ± 0.36
CQI P. falciparum D10; CQ:peptide ratio 1:1 at IC50, D10, listed as Tyrocidine A
  CQ:Peptide FIC Index: 3.76 ± 0.65
CQI P. falciparum D10; [4]
  CQ FIC: 0.66 ± 0.02
  CQ:Peptide FIC Index: 1.60 ± 0.20
  Peptide FIC: 0.95 ± 0.18
CQI P. falciparum D10; [5]
  CQ FIC: 0.13 ± 0.10
  CQ:Peptide FIC Index: 1.35 ± 0.37
  Peptide FIC: 1.21 ± 0.29

## CC(C)C[C@@H]1NC(=O)[C@H](CCCN)NC(=O)[C@H](C(C)C)NC(=O)[C@H](Cc2c[nH]c3ccccc23)NC(=O)[C@H](CCC(N)=O)NC(=O)[C@H](CC(N)=O)NC(=O)[C@@H](Cc2c[nH]c3ccccc23)NC(=O)[C@H](Cc2c[nH]c3ccccc23)NC(=O)[C@@H]2CCCN2C(=O)[C@@H](Cc2ccccc2)NC1=O [TpcC, tryptocidine C] (cyclo(L[dF]PW[dW]NQWV[Orn]))
[1]
  CC50 at 24 h: 10000 nM
CQR P. falciparum Dd2
  IC50: 398 ± 94 nM
  Resistance Index IC50Dd2/IC503D7: 3
  Resistance Index IC50Dd2/IC50D10: 9
CQS P. falciparum 3D7; [2]
  IC50: 126 ± 28 nM
CQI P. falciparum D10; [4]
  CQ FIC: 0.36 ± 0.07
  CQ:Peptide FIC Index: 1.26 ± 0.36
  Peptide FIC: 0.90 ± 0.40
CQI P. falciparum D10; [6]
  CQ FIC: 0.23 ± 0.08
  CQ:Peptide FIC Index: 1.47 ± 0.28
  Peptide FIC: 1.24 ± 0.26
CQI P. falciparum D10; [5]
  CQ FIC: 0.08 ± 0.03
  CQ:Peptide FIC Index: 1.02 ± 0.17
  Peptide FIC: 0.93 ± 0.16
CQI P. falciparum D10
  nature of CQ-peptide interaction: additive activity

## CC(C)C[C@@H]1NC(=O)[C@H](CCCN)NC(=O)[C@H](C(C)C)NC(=O)[C@H](Cc2ccccc2)NC(=O)[C@H](CCC(N)=O)NC(=O)[C@H](CC(N)=O)NC(=O)[C@@H](Cc2ccccc2)NC(=O)[C@H](Cc2ccccc2)NC(=O)[C@@H]2CCCN2C(=O)[C@@H](Cc2ccccc2)NC1=O [PhcA, phenycidine A] (cyclo(FV[Orn]L[dF]PF[dF]NQ))
[1]
  CC50 at 24 h: 8000 nM
CQR P. falciparum Dd2
  IC50: 511 ± 96 nM
  Resistance Index IC50Dd2/IC503D7: 22
  Resistance Index IC50Dd2/IC50D10: 10
CQS P. falciparum 3D7; CQS 3D7, 48 h
  IC50: 23 ± 7 nM
CQI P. falciparum D10
  nature of CQ-peptide interaction: synergistic action
